The values that follow come from PubChem BioAssay (NCI).

Values joined by “and” are separate entries in the source; they are usually repeats but may differ in a detail not shown here. Equal entries are not always repeated.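 All cell lines were grown in 96-well plates and treated with compound for 48 hours. Here, GI50 denotes the concentration required for 50% inhibition of growth. TGI denotes the concentration required for complete inhibition of growth.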

Among the test systems are MALME-3M melanoma; OVCAR-5 ovarian; SNB-75 CNS; SF-295 CNS; SK-OV-3 ovarian; U251 CNS; 786-0 renal; HOP-92 NSCLC; SN12C renal.
Holding throughout (assay): NCI anticancer screen, dose series, 48 h

Turning to `COc1cc(C2c3cc4c(cc3[C@@H](Nc3cccc(O)c3)C3COC(=O)[C@H]23)OCO4)cc(OC)c1O` (some centres not stated), the TGI is 11.2 µM in the experiment on MALME-3M melanoma; 22.7 µM in the experiment on OVCAR-5 ovarian; 14.1 µM with SNB-75 CNS; 8.07 µM in the experiment with SF-295 CNS; 18 µM with SK-OV-3 ovarian; 9.22 µM in the experiment with U251 CNS. Moreover, the TGI in the experiment with 786-0 renal was 5.36 µM; with HOP-92 NSCLC, 0.951 µM and 9.4 µM; in the experiment with SN12C renal it was 6.82 µM. The GI50 is 0.623 µM in the experiment on SNB-75 CNS; 0.585 µM in the experiment on SF-295 CNS; 0.732 µM in the experiment on U251 CNS; 0.98 µM with 786-0 renal; 0.458 µM in the experiment with HOP-92 NSCLC; 0.688 µM in the experiment with SN12C renal.
Consider `O=C1c2ccccc2C(=O)c2c1ccc1c3ccccc3n(Cc3ccccc3)c21`, for which the TGI with MALME-3M melanoma, with OVCAR-5 ovarian, in the experiment on SNB-75 CNS, in the experiment with SF-295 CNS, in the experiment on SK-OV-3 ovarian and in the experiment with 786-0 renal was over 100 µM throughout. For the same compound, the values for the TGI with HOP-92 NSCLC and in the experiment with SN12C renal were 94.2 µM and over 100 µM, respectively.
For `CN1C(=O)C23CC4=CC=CC(O)C4N2C(=O)C1(CO)SS3` (configuration not stated), the TGI in the experiment with MALME-3M melanoma stood at 0.449 µM; with OVCAR-5 ovarian it was 0.149 µM; with SNB-75 CNS, 0.382 µM; in the experiment with SF-295 CNS it was 0.389 µM; in the experiment on SK-OV-3 ovarian it was 2.75 µM; in the experiment on U251 CNS, 0.448 µM. Moreover, the TGI in the experiment with 786-0 renal is 0.222 µM; in the experiment on HOP-92 NSCLC, 0.41 µM; in the experiment on SN12C renal, 0.139 µM.
In the case of `N#CC(=C=[N-])[n+]1ccc(Cl)cc1`, the TGI is 30.6 µM in the experiment on MALME-3M melanoma; 32.7 µM with OVCAR-5 ovarian; 32.2 µM in the experiment with SNB-75 CNS; 38.9 µM in the experiment with SF-295 CNS; over 100 µM with SK-OV-3 ovarian; 29.7 µM in the experiment on U251 CNS. The values for the TGI in the experiment on 786-0 renal, with HOP-92 NSCLC and in the experiment with SN12C renal were 37.2 µM, 29.8 µM and 28.3 µM, respectively.
Turning to `COc1cc(C(=O)/C=C/c2c(C(F)(F)F)nc3sccn23)cc(OC)c1OC`, the GI50 in the experiment on MALME-3M melanoma is 1.59 µM; with SNB-75 CNS it was 1.87 µM; with SF-295 CNS, 2.58 µM; in the experiment with SK-OV-3 ovarian, 2.87 µM; with U251 CNS, 1.38 µM; in the experiment on 786-0 renal it was 1.76 µM. In addition, the GI50 with HOP-92 NSCLC is 7 µM; in the experiment with SN12C renal, 1.56 µM. The TGI with MALME-3M melanoma turned out to be 3.67 µM; with SNB-75 CNS, 4.86 µM; in the experiment on SF-295 CNS, 7.86 µM; with SK-OV-3 ovarian, 8.99 µM; in the experiment on U251 CNS it was 2.79 µM; with 786-0 renal it was 3.16 µM. Further, the TGI with HOP-92 NSCLC was 22.4 µM; in the experiment with SN12C renal, 3.69 µM.
As for `O=C1/C(=C/c2ccccc2)CN(C(=O)OCC(Cl)(Cl)Cl)C/C1=C\c1ccccc1`, the TGI with MALME-3M melanoma stood at 11.9 µM; with OVCAR-5 ovarian, 16.8 µM; with SNB-75 CNS it was 13.6 µM; in the experiment with SF-295 CNS it was 3.92 µM; in the experiment with SK-OV-3 ovarian, 24.6 µM; in the experiment with U251 CNS it was 3.28 µM. For the same compound, the TGI in the experiment on 786-0 renal was determined as 5.46 µM; in the experiment on SN12C renal, 3.56 µM.
With `CCC1NCC(=O)c2c1[nH]c1ccccc21` (configuration not stated), the TGI in the experiment with MALME-3M melanoma, in the experiment with OVCAR-5 ovarian, with SNB-75 CNS, in the experiment with SF-295 CNS, in the experiment on SK-OV-3 ovarian and with U251 CNS was over 100 µM throughout. In addition, the TGI in the experiment on 786-0 renal, in the experiment with HOP-92 NSCLC and with SN12C renal was over 100 µM in each case.
In the case of `Cc1cccc(CC(C)(C)C)c1NC(=O)C(=O)C(C(=O)c1ccc2ccccc2c1)C1OC(=O)c2ccccc21` (configuration not stated), the TGI with MALME-3M melanoma is 27.4 µM; in the experiment with OVCAR-5 ovarian, 34.7 µM; in the experiment with SF-295 CNS, 21.6 µM; in the experiment on SK-OV-3 ovarian it was over 100 µM; with U251 CNS, 17.8 µM; with 786-0 renal it was 21.7 µM. In addition, the TGI is 8.54 µM in the experiment on HOP-92 NSCLC and 36.9 µM in the experiment on SN12C renal.
As for `CCN1CC2(C)CC[C@@H](OC)C34[C@@H]2[C@H](OC(C)=O)C2(OCO[C@@]25C[C@H](OC)C2C[C@]3(O)[C@@H]5[C@H]2O)[C@H]14`, the TGI in the experiment with MALME-3M melanoma, with OVCAR-5 ovarian, with SNB-75 CNS, in the experiment with SF-295 CNS, in the experiment with U251 CNS and in the experiment with 786-0 renal was over 100 µM in each case. Also, the TGI with HOP-92 NSCLC and in the experiment with SN12C renal was over 100 µM each time.
Consider `C/C(=N\NC(=S)N1CCC(C2CCN(C(=S)N/N=C(\C)c3ccccn3)CC2)CC1)c1ccccn1`, for which the TGI with MALME-3M melanoma is over 100 µM; in the experiment with OVCAR-5 ovarian, over 100 µM; with SNB-75 CNS, 67.4 µM; in the experiment with SF-295 CNS it was over 100 µM; in the experiment with SK-OV-3 ovarian, over 100 µM; with U251 CNS it was over 100 µM. Besides, the TGI in the experiment with 786-0 renal, with HOP-92 NSCLC and with SN12C renal was over 100 µM throughout.
With `O=C(OCc1nc2ccc(Br)cc2c(=O)n1-c1ccccc1)c1ccccc1O`, the TGI in the experiment on MALME-3M melanoma, in the experiment on OVCAR-5 ovarian, with SNB-75 CNS, with SF-295 CNS, in the experiment with SK-OV-3 ovarian and in the experiment with U251 CNS was over 100 µM in each case. In addition, the TGI with 786-0 renal, with HOP-92 NSCLC and in the experiment on SN12C renal was over 100 µM in each case.
As to `Cc1cccc(N2C(=O)/C(=C/c3ccc(N(CCC#N)CCC#N)cc3C)N=C2c2cc([N+](=O)[O-])ccc2Cl)c1`, the TGI in the experiment on MALME-3M melanoma, in the experiment on OVCAR-5 ovarian, in the experiment on SNB-75 CNS, in the experiment on SF-295 CNS, in the experiment on SK-OV-3 ovarian and with U251 CNS was over 100 µM in each case. Moreover, the TGI in the experiment on 786-0 renal, with HOP-92 NSCLC and in the experiment with SN12C renal was over 100 µM throughout.
Take `CC(C)=C1CCC(CN2CCCC2)C1=O` (configuration not stated): the TGI in the experiment on MALME-3M melanoma was 37.2 µM; in the experiment on OVCAR-5 ovarian it was over 100 µM; with SNB-75 CNS, over 100 µM; with SF-295 CNS, over 100 µM; in the experiment with 786-0 renal, 30.8 µM; in the experiment on HOP-92 NSCLC, 58.5 µM. The same compound displayed a TGI in the experiment with SN12C renal of 33.1 µM.
`O=C1CC2Sc3ccccc3N=C2N1c1ccc(Cl)cc1Cl` (configuration not stated): the TGI in the experiment on MALME-3M melanoma, with OVCAR-5 ovarian, in the experiment on SNB-75 CNS, in the experiment on SF-295 CNS, in the experiment with U251 CNS and in the experiment with 786-0 renal was over 100 µM each time. For the same compound, the TGI in the experiment with HOP-92 NSCLC and in the experiment with SN12C renal was over 100 µM throughout.
On to `CCOC(=N)CC(=O)NC(C)c1ccccc1` (configuration not stated), for which the TGI with MALME-3M melanoma, in the experiment on OVCAR-5 ovarian, in the experiment on SNB-75 CNS, in the experiment with SF-295 CNS, in the experiment on SK-OV-3 ovarian and with U251 CNS was over 100 µM throughout. Moreover, the TGI in the experiment with 786-0 renal and in the experiment with SN12C renal was over 100 µM throughout.
On to `CCCCCCCCCCCCCCCC(=O)N[C@H]1CCc2cc(OC)c(OC)c(OC)c2-c2ccc(SC)c(=O)cc21`, for which the GI50 in the experiment on MALME-3M melanoma was 0.345 µM; with OVCAR-5 ovarian, 19.7 µM; in the experiment with SNB-75 CNS, 2.96 µM; in the experiment on SF-295 CNS, 1.12 µM; in the experiment on U251 CNS, 2.64 µM; with 786-0 renal, 3.31 µM. The GI50 with HOP-92 NSCLC was 0.564 µM; in the experiment with SN12C renal, 2.84 µM. In addition, the TGI with MALME-3M melanoma was 16.3 µM and 1.67 µM; in the experiment on OVCAR-5 ovarian, 41.1 µM and 36.8 µM; in the experiment with SF-295 CNS, 8.89 µM and 5.44 µM; in the experiment with SK-OV-3 ovarian it was 6.19 µM; in the experiment on U251 CNS, 8.6 µM and 9.32 µM; with 786-0 renal, 8.24 µM and 12.9 µM. The TGI in the experiment with HOP-92 NSCLC is 11.3 µM and 5.32 µM; with SN12C renal, 9.08 µM and 10.3 µM.
On to `O=C1/C(=C/c2ccccc2)CN(C(=O)Oc2ccc([N+](=O)[O-])cc2)C/C1=C\c1ccccc1`, for which the GI50 in the experiment on SF-295 CNS was 2.07 µM; in the experiment with U251 CNS it was 1.56 µM; in the experiment with 786-0 renal, 1.74 µM; in the experiment on SN12C renal, 3.45 µM. Moreover, the TGI with SF-295 CNS is 7.93 µM and 4.98 µM; in the experiment with U251 CNS, 4.2 µM and 3.31 µM; in the experiment on 786-0 renal, 3.55 µM; in the experiment with SN12C renal, 7.62 µM.
With `CCOC(=O)NNC(=O)NC12CC3CC(CC(C3)C1)C2`, the TGI in the experiment on MALME-3M melanoma, in the experiment on OVCAR-5 ovarian, with SNB-75 CNS, in the experiment on SF-295 CNS, in the experiment on SK-OV-3 ovarian and in the experiment on U251 CNS was over 100 µM in each case. Also, the TGI in the experiment with 786-0 renal, with HOP-92 NSCLC and in the experiment with SN12C renal was over 100 µM throughout.
Consider `C/C(=N/Nc1ccc([N+](=O)[O-])cc1[N+](=O)[O-])C(CC(C(=O)Nc1ccccc1C)/C(C)=N\Nc1ccc([N+](=O)[O-])cc1[N+](=O)[O-])C(=O)Nc1ccccc1C` (configuration not stated), for which the TGI with MALME-3M melanoma is over 63.1 µM; in the experiment with OVCAR-5 ovarian, 31 µM; in the experiment with SNB-75 CNS, 29.4 µM; in the experiment with SF-295 CNS, 33.9 µM; with SK-OV-3 ovarian, over 61.2 µM; with U251 CNS, 14 µM. In addition, the figures for the TGI in the experiment on 786-0 renal, in the experiment with HOP-92 NSCLC and with SN12C renal were 41.3 µM, 15.5 µM and 12.7 µM, respectively.
